Assay results as given in patent US20220370493A1, “METHODS AND COMPOSITIONS FOR GENERATING NITRIC OXIDE AND USES THEREOF” (THIRTY HOLDINGS LIMITED, priority 2019, published 2022).

How the values were obtained:
[1] = test system: SARS-CoV-2 clinical isolate; test: SARS-CoV-2 virus yield reduction assay in Vero E6 cells; type: cell-based
Description: SARS-CoV-2 clinical isolate.
At time 0 hr, Vero E6 cells were infected with virus in presence of the formulation or controls and incubated for 1 hour. After this incubation period the inoculum was removed and the cells were washed. Fresh formulation or controls were then added to the washed cells. At 24 hours post infection, Vero E6 cell supernatants were harvested and titrated, and the virus titration was incubated for 6 days prior to readout to determine any virus yield reduction. Separate tests were performed at four MOIs including 3.0 and 0.3, although only those two MOIs were titrated. The readout was by crystal violet (cell monolayer) staining, followed by CPE scoring.

CCN(CC)CCCC(C)Nc1ccnc2cc(Cl)ccc12 (stereo not shown) [chloroquine, Chloroquine phosphate]
SARS-CoV-2 titre ([1]; FIG. 33, Run 1, MOI 3.0, 24 hours): limit of detection
SARS-CoV-2 titre ([1]; FIG. 34, Run 2, MOI 3.0 and MOI 0.3, 48 hours): limit of detection

O=C(O)CC(O)(CC(=O)O)C(=O)O [citric acid pH 5.8, citric acid]
cytotoxicity on the LDH assay (Vero E6 cells): low cytotoxicity
in vitro antiviral action against SARS-CoV-2 ([1]; FIGS. 33 and 34, MOI 3.0 and 0.3): high in vitro antiviral action
